Assay results published in ChEMBL document CHEMBL4145665, “Structure-Activity Relationship of Novel and Selective Biaryl-Chroman GPR40 AgoPAMs” (ACS Med Chem Lett, 2018).

How the values were obtained:
[1] = Effective half life in Wistar-Han rat at 1 mg/kg, iv or 2 mg/kg, po administered as single dose; type: ADME, organism-based; conditions: in vivo, read-out: t1/2eff (converted)
[2] = Volume of distribution at steady state in Wistar-Han rat at 1 mg/kg, iv or 2 mg/kg, po administered as single dose; type: ADME, organism-based; conditions: in vivo, read-out: Vdss
Rattus norvegicus [3] = test: Antidiabetic activity in po dosed Goto Kakizaki rats assessed as reduction in blood glucose excursion pretreated for 1 hr followed by dextrose challenge measured after 20 to 60 mins by OGTT method; type: functional; conditions: read-out: MED
[4] = Clearance in Wistar-Han rat at 1 mg/kg, iv or 2 mg/kg, po administered as single dose; type: ADME, organism-based; conditions: in vivo
[5] = biological target: Free fatty acid receptor 1 (Rattus norvegicus, UniProt Q8K3T4); test: Agonist activity at recombinant rat GPR40 expressed in CHOK1 cells assessed as increase in IP1 accumulation measured after 60 mins by HTRF assay; type: functional, cell-based
Chain of Free fatty acid receptor 1 (Rattus norvegicus, UniProt Q8K3T4) (Q8K3T4 whole entry): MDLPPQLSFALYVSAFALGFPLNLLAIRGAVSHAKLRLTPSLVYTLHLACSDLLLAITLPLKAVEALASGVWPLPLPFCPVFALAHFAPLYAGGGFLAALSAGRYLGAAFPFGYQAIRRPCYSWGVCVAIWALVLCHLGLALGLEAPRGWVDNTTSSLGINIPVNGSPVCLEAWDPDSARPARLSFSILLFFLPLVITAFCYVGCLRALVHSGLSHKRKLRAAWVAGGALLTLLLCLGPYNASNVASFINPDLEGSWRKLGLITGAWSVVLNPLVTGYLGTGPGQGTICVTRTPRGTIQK

[6] = Oral bioavailability in Wistar-Han rat at 2 mg/kg administered as single dose; type: ADME, organism-based; conditions: in vivo
[7] = Lipophilicity, log D of the compound at pH 7 at 100 uM by HPLC method; type: physicochemical; conditions: buffer
[8] = Fraction unbound in Wistar-Han rat plasma at 1 mg/kg, iv or 2 mg/kg, po administered as single dose; type: ADME, organism-based
[9] = biological target: T1, Free fatty acid receptor 1 (Homo sapiens, UniProt O14842); test: Agonist activity at recombinant human GPR40 expressed in HEK293 cells assessed as increase in IP1 accumulation measured after 60 mins in presence of 100% human serum by HTRF assay; type: functional, cell-based
T1 sequence (O14842 whole entry): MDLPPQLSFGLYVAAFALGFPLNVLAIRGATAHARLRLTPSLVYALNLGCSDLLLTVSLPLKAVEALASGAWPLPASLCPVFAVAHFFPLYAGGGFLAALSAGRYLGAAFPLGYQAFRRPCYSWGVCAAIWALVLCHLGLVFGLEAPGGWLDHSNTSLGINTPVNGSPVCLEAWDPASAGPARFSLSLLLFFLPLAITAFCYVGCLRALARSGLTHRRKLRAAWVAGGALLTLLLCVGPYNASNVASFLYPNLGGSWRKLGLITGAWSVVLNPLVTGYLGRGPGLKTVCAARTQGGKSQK

[10] = biological target: T2, Free fatty acid receptor 4 (Homo sapiens, UniProt Q5NUL3); test: Agonist activity at GPR120 (unknown origin); type: functional
T2 sequence (Q5NUL3 whole entry): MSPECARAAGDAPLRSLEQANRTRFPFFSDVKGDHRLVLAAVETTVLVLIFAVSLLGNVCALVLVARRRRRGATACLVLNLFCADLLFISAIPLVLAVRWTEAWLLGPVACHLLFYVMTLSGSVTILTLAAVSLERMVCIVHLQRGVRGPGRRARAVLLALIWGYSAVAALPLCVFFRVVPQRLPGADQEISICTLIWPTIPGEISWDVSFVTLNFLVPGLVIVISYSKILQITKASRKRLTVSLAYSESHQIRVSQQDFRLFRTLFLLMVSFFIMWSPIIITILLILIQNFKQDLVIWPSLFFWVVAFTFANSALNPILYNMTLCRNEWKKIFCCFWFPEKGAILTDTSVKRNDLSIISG

[11] = biological target: T1, Free fatty acid receptor 1; test: Agonist activity at recombinant human GPR40 expressed in HEK293 cells assessed as increase in IP1 accumulation measured after 60 mins by HTRF assay; type: functional, cell-based
Bile salt export pump = Bile salt export pump (Homo sapiens, UniProt O95342); test: Inhibition of human BSEP expressed in baculovirus infected Sf9 insect cell membrane vesicles assessed as reduction in ATP-dependent [3H]-taurocholic acid uptake; type: ADME
Chain of Bile salt export pump (O95342 whole entry): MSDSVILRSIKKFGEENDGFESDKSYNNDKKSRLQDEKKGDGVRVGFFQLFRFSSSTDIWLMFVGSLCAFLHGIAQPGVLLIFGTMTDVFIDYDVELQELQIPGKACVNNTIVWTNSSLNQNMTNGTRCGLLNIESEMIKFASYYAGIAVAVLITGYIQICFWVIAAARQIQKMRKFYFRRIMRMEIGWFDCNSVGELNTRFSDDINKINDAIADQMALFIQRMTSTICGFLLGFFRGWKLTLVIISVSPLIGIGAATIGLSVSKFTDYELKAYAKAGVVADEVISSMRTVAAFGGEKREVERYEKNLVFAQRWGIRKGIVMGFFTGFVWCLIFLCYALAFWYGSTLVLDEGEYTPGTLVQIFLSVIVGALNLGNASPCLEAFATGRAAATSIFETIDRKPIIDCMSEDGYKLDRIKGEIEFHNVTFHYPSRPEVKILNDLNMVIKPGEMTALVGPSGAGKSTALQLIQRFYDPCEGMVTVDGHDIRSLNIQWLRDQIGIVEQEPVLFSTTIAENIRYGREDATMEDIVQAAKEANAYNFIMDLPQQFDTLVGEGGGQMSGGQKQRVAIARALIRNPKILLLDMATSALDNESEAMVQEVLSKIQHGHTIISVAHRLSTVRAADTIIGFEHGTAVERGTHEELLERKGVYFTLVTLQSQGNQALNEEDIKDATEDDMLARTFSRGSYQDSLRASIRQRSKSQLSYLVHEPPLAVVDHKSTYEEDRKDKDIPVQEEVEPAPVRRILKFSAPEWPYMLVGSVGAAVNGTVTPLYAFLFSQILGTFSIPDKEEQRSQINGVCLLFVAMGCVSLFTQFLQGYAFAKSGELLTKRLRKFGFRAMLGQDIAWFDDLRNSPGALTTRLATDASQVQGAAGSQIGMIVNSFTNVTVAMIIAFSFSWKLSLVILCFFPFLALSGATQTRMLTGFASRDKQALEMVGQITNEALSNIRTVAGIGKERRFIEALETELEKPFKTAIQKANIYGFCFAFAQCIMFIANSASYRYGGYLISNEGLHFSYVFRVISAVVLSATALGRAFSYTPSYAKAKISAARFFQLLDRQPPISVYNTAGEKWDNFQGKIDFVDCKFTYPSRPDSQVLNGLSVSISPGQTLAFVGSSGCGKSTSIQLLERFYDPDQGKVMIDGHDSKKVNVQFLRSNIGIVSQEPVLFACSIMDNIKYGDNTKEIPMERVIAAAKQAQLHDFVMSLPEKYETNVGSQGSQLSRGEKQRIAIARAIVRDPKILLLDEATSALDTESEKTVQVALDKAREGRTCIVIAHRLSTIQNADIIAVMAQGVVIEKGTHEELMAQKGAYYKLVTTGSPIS

Rattus norvegicus [12] = test: Antidiabetic activity in Sprague-Dawley rat assessed as inhibition of blood glucose AUC at 3 mg/kg, po treated prior to dextrose challenge and measured after 20 to 60 mins by IPGTT relative to control; type: functional
Rattus norvegicus [13] = test: Antidiabetic activity in Goto Kakizaki rats assessed as inhibition of blood glucose AUC at 30 mg/kg, po pretreated for 1 hr followed by dextrose challenge measured after 20 to 60 mins by OGTT method relative to control; type: functional
Rattus norvegicus [14] = test: Antidiabetic activity in Goto Kakizaki rats assessed as inhibition of blood glucose AUC at 10 mg/kg, po pretreated for 1 hr followed by dextrose challenge measured after 20 to 60 mins by OGTT method relative to control; type: functional
Rattus norvegicus [15] = test: Antidiabetic activity in Goto Kakizaki rats assessed as inhibition of blood glucose AUC at 0.3 mg/kg, po pretreated for 1 hr followed by dextrose challenge measured after 20 to 60 mins by OGTT method relative to control; type: functional
Rattus norvegicus [16] = test: Antidiabetic activity in Goto Kakizaki rats assessed as inhibition of blood glucose AUC at 3 mg/kg, po pretreated for 1 hr followed by dextrose challenge measured after 20 to 60 mins by OGTT method relative to control; type: functional
Rattus norvegicus [17] = test: Antidiabetic activity in Goto Kakizaki rats assessed as inhibition of blood glucose AUC at 1 mg/kg, po pretreated for 1 hr followed by dextrose challenge measured after 20 to 60 mins by OGTT method relative to control; type: functional
[18] = biological target: T1, Free fatty acid receptor 1; test: Agonist activity at recombinant human GPR40 expressed in HEK293 cells assessed as increase in IP1 accumulation measured after 60 mins by HTRF assay relative to AM-1638; type: functional, cell-based
Rattus norvegicus [19] = test: Antidiabetic activity in Goto Kakizaki rats assessed as plasma concentration required for reduction in blood glucose excursion at 30 mg/kg, po pretreated for 1 hr followed by dextrose challenge measured 3 hrs post dose by OGTT; type: functional, organism-based
Rattus norvegicus [20] = test: Antidiabetic activity in Goto Kakizaki rats assessed as plasma concentration required for reduction in blood glucose excursion at 3 mg/kg, po pretreated for 1 hr followed by dextrose challenge measured 3 hrs post dose by OGTT; type: functional, organism-based
Rattus norvegicus [21] = test: Antidiabetic activity in po dosed Goto Kakizaki rats assessed as plasma concentration required for reduction in blood glucose excursion at MED pretreated for 1 hr followed by dextrose challenge measured 3 hrs post dose by OGTT; type: functional, organism-based
[22] = biological target: Free fatty acid receptor 1 (Rattus norvegicus) (UniProt Q8K3T4); test: Agonist activity at recombinant rat GPR40 expressed in CHOK1 cells assessed as increase in IP1 accumulation measured after 60 mins by HTRF assay relative to AM-1638; type: functional, cell-based
Chain of Free fatty acid receptor 1 (Rattus norvegicus) (Q8K3T4 whole entry): as the sequence (Q8K3T4 whole entry) above

Rattus norvegicus [23] = test: Antidiabetic activity in Goto Kakizaki rats assessed as plasma concentration required for reduction in blood glucose excursion at 1 mg/kg, po pretreated for 1 hr followed by dextrose challenge measured 3 hrs post dose by OGTT; type: functional, organism-based
Rattus norvegicus [24] = test: Antidiabetic activity in Goto Kakizaki rats assessed as plasma concentration required for reduction in blood glucose excursion at 0.3 mg/kg, po pretreated for 1 hr followed by dextrose challenge measured 3 hrs post dose by OGTT; type: functional, organism-based
Rattus norvegicus [25] = test: Antidiabetic activity in Goto Kakizaki rats assessed as plasma concentration required for reduction in blood glucose excursion at 10 mg/kg, po pretreated for 1 hr followed by dextrose challenge measured 3 hrs post dose by OGTT; type: functional, organism-based
[26] = biological target: T1, Free fatty acid receptor 1; test: Agonist activity at recombinant human GPR40 expressed in HEK293 cells assessed as increase in IP1 accumulation measured after 60 mins in presence of 100% human serum by HTRF assay relative to AM-1638; type: functional, cell-based

| SMILES | half-life [1] [h] | Vd [2] [L/kg] | minimal effective dose (Rattus norvegicus [3]) [mg/kg] | clearance [4] [mL/min/kg] | EC50 [5] [nM] | bioavailability [6] [%] | logD at 100 µM [7] | fraction unbound [8] | EC50 [9] [nM] | EC50 [10] [nM] | EC50 [11] [nM] | IC50 (Bile salt export pump) [nM] | inhibition (INH) (Rattus norvegicus [12]) [%] | further results |
| --- | --- | --- | --- | --- | --- | --- | --- | --- | --- | --- | --- | --- | --- | --- |
| COc1ccc(F)c(-c2ccc(C3CCc4ccc([C@H](C5CC5)[C@H](C)C(=O)[O-])cc4O3)cc2)c1.[Na+] (stereo in doubt; 14) | 3.5 | 0.41 | 10 | 3.1 | 1.2 | 50 | 2.94 | 0.005 | 146 | > 10000 | 1.1 | 1400 | 103 | – |
| COc1ccc(F)c(-c2ccc(C3CCc4ccc([C@H](C5CC5)[C@H](C)C(=O)[O-])cc4O3)nc2)c1.[Na+] (stereo in doubt; 16) | – | – | 30 | – | 2.3 | – | 2.25 | 0.003 | – | > 10000 | – | 300 | 99 | – |
| COc1cc(-c2ccc(C3CCc4ccc([C@H](C5CC5)[C@H](C)C(=O)[O-])cc4O3)nc2)c(F)cn1.[Na+] (stereo in doubt; 29) | 6.4 | 0.41 | 30 | 1.2 | 5.2 | 100 | – | 0.001 | 243 | > 10000 | 2.7 | 3200 | – | inhibition in vivo at 30 mg/kg (Rattus norvegicus [13]): 121%; inhibition in vivo at 10 mg/kg (Rattus norvegicus [14]): 111%; inhibition in vivo at 0.3 mg/kg (Rattus norvegicus [15]): 35%; inhibition in vivo at 3 mg/kg (Rattus norvegicus [16]): 96%; inhibition in vivo at 1 mg/kg (Rattus norvegicus [17]): 69%; inhibition in vivo at 3 mg/kg (Rattus norvegicus [12]; Rattus norvegicus, Sprague-Dawley, po): 108% |
| COc1cc(-c2ccc(C3CCc4ccc([C@H](C5CC5)[C@H](C)C(=O)O)cc4O3)nc2)c(F)cn1 (stereo in doubt; 29) | – | – | – | – | – | – | – | – | – | – | – | – | – | max activation [18]: > 179%; Cp (Rattus norvegicus [19]): 32 µM; Cp (Rattus norvegicus [20]): 5.4 µM; Cp (Rattus norvegicus [21]): 32 µM; max activation [22]: > 370%; Cp (Rattus norvegicus [23]): 2 µM; Cp (Rattus norvegicus [24]): 0.44 µM; Cp (Rattus norvegicus [25]): 11 µM; max activation [26]: > 179% |
